From patent US20080311037A1, “Compounds which bind PSMA and uses thereof” (priority 2005, published 2008)

How the values were obtained:
[1] = target: T1, PSMA (Homo sapiens, UniProt Q04609); test: Binding of 3H-ZJ24 to recombinant hPSMA, Scatchard analysis; parameters: Recombinant protein of the extracellular domain of PSMA can also exist in readily inter-convertible dimer-monomer forms; settings: 50 mM Tris buffer pH 7.5, 30 min, 37° C
Protocol: FIG. 2 is a graph showing binding to the monomeric and active dimeric form of soluble recombinant hPSMA of a ^3H (tritium) radiolabled (ZJ24), ^3H—(S)-2-[3-((R)-1-carboxy-2-methyl-sulfanyl-ethyl)-ureido]-pentanedioic acid or [^3H]MeCys-C(O)-Glu Parent PMSA ligand (6) maintains its specificity for PSMA by binding to recombinant hPSMA with a Kd of 2 nM based on Scatchard analysis. The binding assay was performed in 50 mM Tris buffer (pH 7.5). Briefly, 0.5 μg of recombinant PSMA was incubated with ^3H-ZJ24 in a total volume of 100 μL for 30 min at 37° C. The mixture was centrifuged through a 50K cutoff membrane. Then 50 μL of filtrate was added to 4 mL of cocktail and the radioactivity measured. […] After 60 min less than 10% of the compound found in kidney and plasma was degraded.
Target sequence in this assay (Q04609 44-750 limits assumed): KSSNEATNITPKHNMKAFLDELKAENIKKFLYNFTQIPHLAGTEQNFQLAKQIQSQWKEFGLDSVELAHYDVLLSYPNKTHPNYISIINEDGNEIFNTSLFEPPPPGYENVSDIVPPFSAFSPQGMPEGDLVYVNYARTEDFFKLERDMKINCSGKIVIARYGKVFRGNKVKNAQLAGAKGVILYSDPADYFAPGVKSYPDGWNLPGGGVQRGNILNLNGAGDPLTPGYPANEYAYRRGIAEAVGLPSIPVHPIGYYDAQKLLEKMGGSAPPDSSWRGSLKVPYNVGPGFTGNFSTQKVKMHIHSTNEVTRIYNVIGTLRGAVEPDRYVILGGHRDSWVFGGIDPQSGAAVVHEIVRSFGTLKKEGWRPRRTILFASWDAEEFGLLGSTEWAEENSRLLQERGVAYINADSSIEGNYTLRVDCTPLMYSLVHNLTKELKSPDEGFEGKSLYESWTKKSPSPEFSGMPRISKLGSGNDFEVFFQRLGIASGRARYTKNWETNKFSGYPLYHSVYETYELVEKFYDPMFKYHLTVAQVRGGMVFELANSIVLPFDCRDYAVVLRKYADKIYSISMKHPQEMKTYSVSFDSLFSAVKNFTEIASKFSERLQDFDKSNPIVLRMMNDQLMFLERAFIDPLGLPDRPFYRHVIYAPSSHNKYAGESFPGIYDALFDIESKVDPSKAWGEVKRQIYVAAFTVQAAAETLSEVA

[2] = target: T1, PSMA; test: Inhibition of 3H-ZJ24 binding to cell membranes; parameters: host or cells: PSMA positive membrane preparations
Protocol: (§1) Described herein are new compounds, which can activate RNase L in PSMA expressing cells. 2-5A was targeted for delivery to PSMA by linking it with a ligand to PSMA. We modified ZJ24, a low molecular weight ligand for PSMA, with 2-5A through a 4-(N-maleimidomethyl)cyclohexane-1-amidate linkage to generate RBI 1033. The inhibitory activity of RBI 1033 to the folate hydrolase activity of PSMA was measured. The PSMA positive membrane preparations were incubated with different concentrations of ZJ24, RBI 1033 and RBI 1032 (2-5A with linker only) together with the substrate methotrexate diglutamate (MTXGlu2) for 1 h. The amount of methotrexate and MTXGlu2 were then determined by HPLC. […] Binding studies were performed by incubating membranes with different concentrations of drugs in the presence of 12 nM of ^3H-ZJ24 for 30 min. […] These studies indicate that RBI 1033 has excellent binding properties to PSMA, which can enable it to serve as a vector for imaging or therapy.
Target sequence in this assay (Q04609 whole entry, the tested form may be a part): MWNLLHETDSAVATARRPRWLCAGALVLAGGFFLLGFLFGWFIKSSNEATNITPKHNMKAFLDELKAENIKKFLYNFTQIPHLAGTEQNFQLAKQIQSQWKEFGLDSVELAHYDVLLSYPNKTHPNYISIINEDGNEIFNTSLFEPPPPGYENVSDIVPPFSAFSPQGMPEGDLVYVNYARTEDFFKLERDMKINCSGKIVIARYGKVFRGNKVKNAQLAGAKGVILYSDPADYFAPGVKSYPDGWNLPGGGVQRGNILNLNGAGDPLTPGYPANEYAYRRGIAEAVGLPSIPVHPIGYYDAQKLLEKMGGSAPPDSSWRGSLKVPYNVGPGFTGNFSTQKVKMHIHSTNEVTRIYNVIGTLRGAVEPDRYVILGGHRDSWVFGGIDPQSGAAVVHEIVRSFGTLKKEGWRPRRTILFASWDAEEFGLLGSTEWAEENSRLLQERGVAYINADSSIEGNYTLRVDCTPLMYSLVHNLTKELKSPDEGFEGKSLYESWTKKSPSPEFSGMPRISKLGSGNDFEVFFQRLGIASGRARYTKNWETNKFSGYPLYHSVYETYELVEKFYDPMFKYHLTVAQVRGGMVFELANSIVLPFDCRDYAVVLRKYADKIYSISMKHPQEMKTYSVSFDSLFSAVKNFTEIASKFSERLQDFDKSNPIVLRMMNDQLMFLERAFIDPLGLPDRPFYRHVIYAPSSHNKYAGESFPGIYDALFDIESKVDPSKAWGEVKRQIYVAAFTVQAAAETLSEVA

[3] = target: T1, PSMA; test: PSMA activity assay, hydrolysis of polyglutamate substrate MTXGlu2; type: biochemical; parameters: Recombinant protein of the extracellular domain of PSMA can also exist in readily inter-convertible dimer-monomer forms; settings: 5 ng recombinant PSMA, MTXGlu2 5 nMol, 37° C, 1 h; read-out: EC50 for inhibition of PSMA activity
Protocol: The activity assay determines the ability of hPSMA to cleave/hydrolyze a polyglutamte substrate under the presence of a ligand at different concentrations. Briefly, recombinant PSMA (5 ng) was incubated with ZJ24 or disclosed 2-5A ligand. After 30 min the polyglutamate substrate MTXGlu2 (5 nMol) was added and the mixture was incubated at 37° C. for 1 h. The reaction was stopped by the addition of 100 μL of 50 mM Na2HPO4. The amount of MTX formed was analyzed using a Thermo Hypersil PRISM RP column (50×4.6 mm, flow rate 1.0 mL/min) at 313 nm.
Target sequence in this assay (Q04609 44-750 limits assumed): as the sequence (Q04609 44-750 limits assumed) above

[4] = target: T1, PSMA; test: Inhibition of folate hydrolase activity of PSMA, PSMA positive membrane preparations, substrate MTXGlu2, HPLC; type: biochemical; parameters: host or cells: PSMA positive membrane preparations
Protocol: as §1
Target sequence in this assay (Q04609 whole entry, the tested form may be a part): as the sequence (Q04609 whole entry, the tested form may be a part) above

[5] = target: T2, active dimeric form of soluble recombinant hPSMA (Homo sapiens, UniProt Q04609); test: Competition binding assay with 3H-ZJ24 on recombinant PSMA; settings: 0.5 μg recombinant PSMA, 12 nM 3H-ZJ24, 30 min, 37° C
T2 construct: Recombinant protein of the extracellular domain of PSMA can also exist in readily inter-convertible dimer-monomer forms
T2 sequence (Q04609 44-750 limits assumed): as the sequence (Q04609 44-750 limits assumed) above
Protocol: Binding and activity of the disclosed 2-5A ligand towards the active dimeric form of soluble recombinant hPSMA was compared with methylated parent ligand Cys-C(O)-Glu ZJ24. The binding assay examines the ability of a novel compound to compete for binding with radio-labeled ZJ24. Different final concentrations of the inhibitor can be incubated in the presence of ZJ24 and the concentration required to inhibit 50% of binding is determined (the EC50). Briefly, 0.5 μg of recombinant PSMA was incubated with the ligand to be tested at different concentrations and 12 nM of ^3H-ZJ24 in a total volume of 100 μL for 30 min at 37° C. The mixture was centrifuged through a 50 kDa cut-off membrane. Finally, 4 mL of biodegradable counting cocktail Bio-Safe II was added, and radioactivity was counted.

With `O=C(O)CCC(NC(=O)NC(CS)C(=O)O)C(=O)O` (stereo not shown) [Parent PMSA ligand (6)] the Kd [1] was 2 nM.
“(S)-2-[3-((R)-1-carboxy-2-methyl-sulfanyl-ethyl)-ureido]-pentanedioic acid [ZJ24]” gave an IC50 ([2]; 12 nM 3H-ZJ24, 30 min, read-out: IC50 for inhibition of binding of 3H-ZJ24 to the cell membrane) of 15.3 nM, an EC50 [3] of 56.7 nM and an IC50 ([4]; PSMA positive membrane preparations, MTXGlu2 substrate, 1 h, read-out: IC50 as folate hydrolase inhibitor) of 53.9 nM. For the same molecule, the EC50 [5] was 15.3 nM.
With `Nc1ncnc2c1ncn2[C@@H]1O[C@H](COP(O)(O)=S)[C@@H](O)[C@H]1OP(O)(=S)OC[C@H]1O[C@@H](n2cnc3c(N)ncnc32)[C@H](OP(O)(=S)OC[C@H]2O[C@@H](n3cnc4c(N)ncnc43)[C@H](OP(O)(=S)OCCCNC(=O)C3CCC(CN4C(=O)CC(SC[C@H](NC(=O)N[C@@H](CCC(=O)O)C(=O)O)C(=O)O)C4=O)CC3)[C@@H]2O)[C@@H]1O` (stereo partly shown) [RBI 1033] the “times higher affinity to PSMA than ZJ24” value ([2]; compared to ZJ24) was “more than 10 times” and the “times more potent than ZJ24 as folate hydrolase inhibitor” value ([4]; compared to ZJ24) was “more than 10 times”.
